Experimental data reported in a melting point compilation (Tetko et al.; mined from patent text by program, amines drawn as free bases though some values may be those of a salt).

Row | Structure (SMILES) | melting point [°C]
1 | Cc1cc(C)c(Nc2nc(C)ccc2S(=O)(=O)c2ccc(OCc3ccc(C#N)cc3)cc2)c(C)c1 | 208 to 210
2 | Cc1cc(C#N)c(=O)[nH]c1-c1ccccc1 | 250 to 257
3 | CN(C)CCn1c2ccccc2c(=NN=C2NCCS2)c2ccccc21 | 192 to 194
4 | COc1ccc(CNC(=O)c2ccc3ccccc3c2Br)cc1 | 155
5 | Cc1nc2ccc(CNS(=O)(=O)c3ccccc3)cc2n1Cc1ccccc1Cl | 164 to 167
6 | Nc1ccc(-c2cnc3c(c2)N(Cc2c(F)ccc(F)c2Cl)CCN3)cn1 | > 200
7 | O=C(c1ccc(Nc2nc(-c3ccccc3)nc3ccccc23)cc1)N1CCN(c2ncc(Cc3ccccc3)cn2)CC1 | > 250
8 | OCCc1coc2c(OC3CCCCO3)cccc12 (stereo not given) | 74 to 76
9 | CC(C)(C)C(=O)C(C(CC#N)c1ccccc1)n1ccnc1 (stereo not given) | 108 to 111
10 | Cc1ccccc1Sc1cccc(C=O)c1O | 42 to 43
11 | O[C@@H]1CN(C[C@H](O)c2ccccc2)CC[C@H]1CCOC(c1ccccc1)c1ccccc1 | 84 to 86
12 | CCCC(=O)Nc1cc(C(=O)NC2CCN(C(C)CC(C(=O)N(C)C)(c3ccccc3)c3ccccc3)CC2OC)c(OC)cc1Cl (stereo not given) | 131
13 | COc1ccc(CC(=O)c2ccccc2)cc1 | 87 to 92
14 | CCOC(=O)c1c(-c2cc(C)c(O)c(C)c2)c(C)n2c1-c1cc(OC)c(OC)cc1C(C)(C)C2 | 200 to 202
15 | CCOC(=O)C=Cc1cc(OC)ccc1-c1ccc(-c2ccc(OC)c(Cl)c2)c(C=O)c1 | 150 to 152
16 | CCCCCCCCOc1ccc(-c2ccc(O)cc2)cc1 | 154
17 | O=C(c1cccs1)C(O)c1ccc(F)cc1 (stereo not given) | 90 to 92
18 | Cc1cc(C(N)=O)ccc1N | 124
19 | CCOC(=O)c1c(C)nc(Cl)c([N+](=O)[O-])c1N | 73 to 75
20 | CC(C)c1nc(-c2cccs2)cc(-c2ccc(F)cc2)c1CO | 151 to 153
21 | C=C(C)CNc1cc(C)nc2cn[nH]c12 | 161 to 164
22 | CC(c1oc2ccccc2c(=O)c1-c1cccc(F)c1)n1nc(-c2cc(O)cc(F)c2)c2c(N)ncnc21 (stereo not given) | 271 to 273
23 | O=[N+]([O-])c1cc2c(Nc3cc(Cl)c(Cl)cc3F)ncnc2cc1OCCOCCO | 149
24 | CCOCc1cc2c(cc1C#Cc1ccccc1)NC(=O)CC(c1cccc(C#N)c1)=N2 | 229
25 | N#Cc1ccc(Oc2ccccc2NC(=O)c2cccc([N+](=O)[O-])c2)cc1C#N | 176 to 178

Row | Structure (SMILES) | melting point [°C]
26 | Cc1ccccc1-n1c(-c2sc(Nc3ccccc3)nc2C)nc2ccccc2c1=O | 227 to 228
27 | Cc1ccccc1NC(=O)CN1C[C@@H](C)N(S(=O)(=O)c2cccc(C#N)c2)[C@@H](C)C1 | 152 to 153
28 | OC1CSC(Oc2ccncc2)C(O)C1O (stereo not given) | 165 to 168
29 | ClCc1cccc(CCl)n1 | 74.5 to 75.5
30 | CC(C)C1CC1(O)C(=O)O (stereo not given) | 135 to 138
31 | Cc1nc(N2CCc3ccccc3CC2)c(C#N)c(=O)n1CC=C(F)F | 158 to 159
32 | O=S(=O)(Nc1ccc2c(OCc3ccc(OC(F)(F)F)cc3)cccc2c1)C(F)(F)F | 80 to 82
33 | CC(O)Cn1cc(C2=C(c3cn(CC(C)O)c4ccccc34)C(=O)NC2=O)c2ccccc21 (stereo not given) | 133 to 135
34 | O=C(Nc1ccc(C2=CCN(Cc3ccccc3)CC2)cc1)c1ccccc1-c1ccccc1 | 142
35 | O=C(Cc1cccc2ccccc12)Nc1cc([C@H]2C[C@@H](NC(=O)CC3CC3)C2)[nH]n1 | 93.2
36 | Cn1cc(C(=O)CCl)cc1C(=O)c1ccc([N+](=O)[O-])cc1 | 173 to 176
37 | CCOC(=O)c1nc2cc(Br)c(Cl)cc2[nH]c1=O | 203 to 205
38 | O=P(O)(O)COc1ccc(-c2c3ccccc3cc3sc4ccccc4c23)cc1 | 240 to 242
39 | CCCCCC(c1nccn1CC(=O)O)n1cnc2cc(-c3ccccc3-c3nn[nH]n3)ccc21 (stereo not given) | 150 to 160
40 | NS(=O)(=O)c1cc2ccc(=O)[nH]c2s1 | 306 to 308
41 | O=C(Nc1ccccn1)C(=O)OC1CCCCC1 | 62 to 64
42 | O=C(Nc1ccc(F)cn1)c1ccc(NCc2ccccc2)nc1 | 167 to 168
43 | Cc1onc(C(C)(O)c2ccccc2)c1NC(=O)CCl (stereo not given) | 130 to 132
44 | CCOC(=O)C1=C(C)NC(c2nccn2C)=NC1c1ccccc1Cl (stereo not given) | 124 to 127
45 | N#Cc1cccc(C2=Nc3cc(N4CCC5(CC4)OCCO5)c(-c4ccccc4F)cc3NC(=O)C2)c1 | 253
46 | CC[C@@H](c1ccccc1)N(Cc1ccc(C(=O)OC)cc1)S(=O)(=O)c1ccc(F)cc1 | 107 to 109
47 | CC1(C)C=C(NC=NC#N)c2cc(C#N)ccc2O1 | 159 to 161
48 | CC(OC(=O)Nc1ccccc1)c1ccccc1[N+](=O)[O-] (stereo not given) | 74 to 75
49 | O=[N+]([O-])c1cc(F)cc(I)c1O | 40
50 | CSc1nn2c(N3CCN(C)CC3)cc(C)nc2c1S(=O)(=O)c1ccc(C(C)C)cc1 | > 230

Row | Structure (SMILES) | melting point [°C]
51 | COc1cc(OC)cc(Oc2ncccc2OCCCc2ccncc2O)c1 | 172 to 178
52 | C=C(C)C(=O)OCCOc1ccc(OCCOC(=O)c2ccc(O)c(Cl)c2)cc1 | 105 to 106
53 | CC1(C)Oc2ccc(C#N)cc2[C@H](N(Cc2ncc[nH]2)c2ccc(Cl)cc2)[C@H]1O | 266 to 267
54 | COc1cc(Nc2c(C#N)cnc3cc(-c4cccc(CN5CCOCC5)c4)ccc23)c(Cl)cc1Cl | 88 to 91
55 | CCOc1ccc(OCCCc2cn(-c3ccc(C(F)(F)F)cn3)nc2OCC)c(CCC(=O)O)c1 | 104 to 105
56 | CCNC(=O)c1cnn(C)c1[Si](C)(C)C | 77 to 81
57 | CCOC(=O)c1cccc(-n2cc(-c3ccccc3)c3c(N)ncnc32)c1 | 176 to 177
58 | O=C(CCCC(=O)Oc1ccc(C(=O)OCc2ccccc2)cc1)Oc1ccc(C(=O)OCc2ccccc2)cc1 | 93 to 94
59 | O=C1NCc2ccccc2N1C1CCNCC1 | 153 to 155
60 | O=c1c2cc(F)c(N3CCCC3)cc2n(CC2CC2)c(=O)n1O | 211 to 213
61 | O=C1C2Cc3c(nc(Br)n3Cc3ccccc3)CN2C(=O)N1c1ccccc1 (stereo not given) | 267 to 269
62 | CCCCOC(=O)[C@H]1CN(c2cc(F)c(C3CCSCC3)c(F)c2)C(=O)O1 | 86 to 89
63 | COc1cc2c(Cl)nc3c4ccccc4nc(Cl)c3c2cc1OC | 245 to 246
64 | C=C1CCC2C3CCc4cc(OC)ccc4C3CCC12C (stereo not given) | 59 to 62
65 | COC(=O)c1cc(S(C)(=O)=O)c(Cl)cc1C | 151
66 | O=[N+]([O-])c1cc(CCl)cc([N+](=O)[O-])c1CCl | 106
67 | CCCCN1CCC(n2nc(-c3c(-c4ccccc4)nn4ccccc34)ccc2=O)CC1 | 106 to 108
68 | On1c(C(F)(F)F)nc2ncc(Cl)cc21 | 264 to 266
69 | CCCCCCCCCCCCCCCCCCC(CO)CO | 88
70 | O=C(Nc1ccccn1)c1c(C(F)(F)F)nc2c(C(F)(F)F)cccc2c1O | 236
71 | COc1cc(Nc2c(C#N)cnc3cc(/C=C/CCN(C)C)c(OC)cc23)c(Cl)cc1Cl | 119 to 121
72 | CNNC(=O)OC(C)(C)C | 50
73 | O=C(Nc1c[nH]nc1C(=O)NCCc1ccc(Br)cc1)c1ccccn1 | 266 to 270
74 | CC1(C)CC(=O)c2cc(O)ccc2S1 | 135 to 142
75 | Nc1c(C(F)(F)F)cc2[nH]c(=O)c(=O)[nH]c2c1Cl | > 360

Row | Structure (SMILES) | melting point [°C]
76 | Cn1cc(-c2ccccc2)c(=O)c(-c2cccs2)c1 | 147 to 148
77 | CC1Cc2cc3c(cc2C(c2ccc([N+](=O)[O-])cc2)=NN1C(N)=NO)OCO3 (stereo not given) | 138 to 145
78 | CCCCCCCCCCNc1c(Nc2ccc(CCCNC[C@H](O)COc3cccc4[nH]c5ccccc5c34)cc2)c(=O)c1=O | 225
79 | Cc1[nH]c(Br)c(C)c1-c1ccnc(Nc2ccc(F)cc2)n1 | 181 to 183
80 | c1ccc2c(c1)CNC1CC2c2ccccc21 (stereo not given) | 115 to 117
81 | CCOC(=O)C(C)(C)n1c(=O)[nH]c2ccc(Cl)cc2c1=O | 179 to 180
82 | CC(C)C(=O)c1c[nH]c2c(COC(=O)c3ccccc3)cccc2c1=O | 158 to 160
83 | CCOC(=O)C(=C1CCCN1C)c1ccc(F)cc1 | 80
84 | O=C(O)[C@H]1NCC[C@@H](O)[C@@H]1O | 253 to 260
85 | COc1cc(OC)c(-c2nc(N)sc2C)cc1Cl | 188
86 | CC(=O)Oc1ccc2nc(NC(=O)Nc3ccccc3)sc2c1 | 210 to 213
87 | Cc1c(F)c(F)c(COC(=O)C(c2cnc(C(C)(C)C)nc2)C(C)(C)C)c(F)c1F (racemic) | 91
88 | COC(=O)c1ccc2c(c1)N(C(=O)c1ccc(-c3ccccc3C(F)(F)F)c(C)c1)Cc1cccn1C2 | 180 to 182
89 | CCCCCCCCCC(Oc1ccc(C2=CCCCCC2)cc1)C(=O)O (stereo not given) | 79 to 81
90 | CCCc1c(CO)ncn1S(=O)(=O)N(C)C | 86 to 88
91 | Cn1nc(C(=O)NCc2ccc(Cl)cc2)c(=O)c2cc(C#CCO)ccc21 | 229 to 231
92 | COc1cc(C(=O)O)cc(OC)c1OC(C)=O | 181 to 183
93 | CCc1cc2c(s1)-n1nc(C(N)=O)nc1C(OC(C)=O)N=C2c1ccccc1Cl (stereo not given) | 168 to 170
94 | NCCCCC(=O)N1CCC(c2[nH]nc3c2C(=O)c2c(NC(=O)NN4CCOCC4)cccc2-3)CC1 | 103 to 105
95 | CCC(Oc1cc(Cl)cc(Cl)c1Cl)C(=O)O (stereo not given) | 106 to 114
96 | CCCCCCCCCCCCCCCCCCOc1ccc(N)cc1 | 95 to 97
97 | [N-]=[N+]=NC1CC(n2cc(C=CBr)c(=O)[nH]c2=O)OC1CCl (stereo not given) | 124 to 125
98 | CNc1cnc(N(Cc2ccccc2)C(=O)OCc2ccccc2)cc1-c1ccccc1C | 110 to 112
99 | CCOC(=O)/C=C/c1oc2cccc(O)c2c1C | 180 to 182
100 | Cc1nn2c(O)ccnc2c1-c1cc(-c2ccccc2)cs1 | 218 to 235
